Measurements as given in PubChem BioAssay (NCI).
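The compound was tested at five concentrations on cells cultured in 96-well plates, with a 48-hour exposure period. Here, GI50 denotes the concentration required for 50% inhibition of growth. The concentration for full growth arrest is given as TGI.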

Experiments:
Experiment in all cases: NCI-60 cell line screen, 48 h
[1] = tested on: SK-MEL-28 melanoma
[2] = tested on: SF-295 CNS
[3] = tested on: HCT-15 colon
[4] = tested on: HCC-2998 colon
[5] = tested on: SNB-19 CNS
[6] = tested on: NCI-H23 lung
[7] = tested on: HL-60(TB) leukemia
[8] = tested on: 786-0 renal
[9] = tested on: MCF7 breast
[10] = tested on: MOLT-4 leukemia
[11] = tested on: DU-145 prostate
[12] = tested on: SF-539 CNS
[13] = tested on: A549 NSCLC
[14] = tested on: PC-3 prostate
[15] = tested on: T-47D breast
[16] = tested on: RXF 393 renal
[17] = tested on: HOP-92 NSCLC
[18] = tested on: OVCAR-3 ovarian
[19] = tested on: UACC-62 melanoma
[20] = tested on: NCI/ADR-RES ovarian
[21] = tested on: ACHN renal
[22] = tested on: SNB-75 CNS
[23] = tested on: HT29 colon
[24] = tested on: SK-MEL-2 melanoma
[25] = tested on: SR leukemia
[26] = tested on: SK-OV-3 ovarian
[27] = tested on: CAKI-1 renal
[28] = tested on: MDA-MB-231 breast
[29] = tested on: MALME-3M melanoma
[30] = tested on: BT-549 breast
[31] = tested on: NCI-H522 lung
[32] = tested on: SK-MEL-5 melanoma
[33] = tested on: NCI-H460 lung
[34] = tested on: UACC-257 melanoma
[35] = tested on: M14 melanoma
[36] = tested on: TK-10 renal
[37] = tested on: HS 578T breast
[38] = tested on: MDA-MB-435
[39] = tested on: U251 CNS
[40] = tested on: NCI-H226 lung
[41] = tested on: SF-268 CNS
[42] = tested on: HCT-116 colon
[43] = tested on: OVCAR-8 ovarian
[44] = tested on: RPMI-8226 leukemia
[45] = tested on: OVCAR-4 ovarian
[46] = tested on: SN12C renal
[47] = tested on: UO-31 renal
[48] = tested on: KM12 colon
[49] = tested on: OVCAR-5 ovarian
[50] = tested on: SW-620 colon
[51] = tested on: K-562 leukemia
[52] = tested on: CCRF-CEM leukemia
[53] = tested on: IGROV1 ovarian
[54] = tested on: COLO 205 colon
[55] = tested on: A498 renal
[56] = tested on: EKVX NSCLC
[57] = tested on: LOX IMVI melanoma
[58] = tested on: HOP-62 NSCLC

With Cc1sc(N)c(S(=O)(=O)c2ccccc2)c1C the TGI [1] was > 100 µM, the TGI [2] was > 100 µM and the TGI [3] was > 100 µM. The TGI [4] was > 100 µM, the TGI [5] was > 100 µM and the TGI [6] was > 100 µM. The TGI [7] was > 100 µM, the TGI [8] was > 100 µM and the TGI [9] was > 100 µM. The TGI [10] was > 100 µM, the TGI [11] was > 100 µM and the TGI [12] was 71 µM. The TGI [13] was > 100 µM, the TGI [14] was > 100 µM and the TGI [15] was > 100 µM. The TGI [16] was > 100 µM, the TGI [17] was > 100 µM and the TGI [18] was > 100 µM. For the same compound, the TGI [19] was > 100 µM, the TGI [20] was > 100 µM and the TGI [21] was > 100 µM. The TGI [22] was > 100 µM, the TGI [23] was > 100 µM and the TGI [24] was > 100 µM. The TGI [25] was > 100 µM, the TGI [26] was > 100 µM and the TGI [27] was > 100 µM. For the same compound, the TGI [28] was > 100 µM, the TGI [29] was > 100 µM and the TGI [30] was > 100 µM. The TGI [31] was > 100 µM, the TGI [32] was > 100 µM and the TGI [33] was > 100 µM. For the same compound, the TGI [34] was > 100 µM, the TGI [35] was > 100 µM and the TGI [36] was > 100 µM. The TGI [37] was > 100 µM, the TGI [38] was > 100 µM and the TGI [39] was > 100 µM. The TGI [40] was > 100 µM, the TGI [41] was > 100 µM and the TGI [42] was > 100 µM. For the same compound, the TGI [43] was > 100 µM, the TGI [44] was > 100 µM and the TGI [45] was > 100 µM. For the same compound, the TGI [46] was > 100 µM, the TGI [47] was > 100 µM and the TGI [48] was > 100 µM. The TGI [49] was > 100 µM, the TGI [50] was > 100 µM and the TGI [51] was > 100 µM. The TGI [52] was > 100 µM, the TGI [53] was > 100 µM and the TGI [54] was > 100 µM. The TGI [55] was > 100 µM and the TGI [56] was > 100 µM.
With O=C(Nc1ccc(Cl)cc1)c1cc(S(=O)(=O)Nc2nnc(-c3ccccc3)c(-c3ccccc3)n2)c(SCc2ccccc2)cc1Cl the GI50 [1] was 28.9 µM, the TGI [1] was > 73.6 µM and the GI50 [2] was 19 µM. The TGI [2] was 41.5 µM, the GI50 [3] was 32.8 µM and the TGI [3] was > 64.2 µM. It also gave a GI50 [4] of 17.6 µM, a TGI [4] of 33.7 µM and a GI50 [5] of 37.9 µM. For the same compound, the TGI [5] was > 67 µM, the GI50 [6] was 24.6 µM and the TGI [6] was 53.7 µM. The GI50 [7] was 23.3 µM, the TGI [7] was > 68.3 µM and the GI50 [8] was 23.6 µM. The TGI [8] was > 57.8 µM, the GI50 [9] was 29.6 µM and the TGI [9] was > 92 µM. For the same compound, the GI50 [10] was 17.4 µM, the TGI [10] was > 60.4 µM and the GI50 [11] was 37.2 µM. For the same compound, the TGI [11] was > 62.1 µM, the GI50 [12] was 35 µM and the TGI [12] was > 100 µM. The GI50 [13] was 37.2 µM, the TGI [13] was > 62.2 µM and the GI50 [14] was 39.8 µM. The TGI [14] was > 100 µM, the GI50 [15] was 24.8 µM and the TGI [15] was > 64.2 µM. The GI50 [16] was 896 nM, the TGI [16] was > 57.7 µM and the GI50 [17] was 25.3 µM. The TGI [17] was 66.8 µM, the GI50 [18] was 17.1 µM and the TGI [18] was 41.2 µM. The GI50 [19] was 18.2 µM, the TGI [19] was 39.7 µM and the GI50 [20] was > 50.2 µM. For the same compound, the TGI [20] was > 80.2 µM, the GI50 [21] was 27.7 µM and the TGI [21] was > 61.5 µM. The GI50 [23] was 28.3 µM, the TGI [23] was > 82 µM and the GI50 [24] was 41.3 µM. The TGI [24] was > 100 µM, the GI50 [25] was 28.9 µM and the TGI [25] was > 57.3 µM. The GI50 [26] was > 44.2 µM, the TGI [26] was > 60.7 µM and the GI50 [27] was 24.8 µM. For the same compound, the TGI [27] was > 59 µM, the GI50 [28] was 19.3 µM and the TGI [28] was > 56.2 µM. For the same compound, the GI50 [29] was 34.2 µM, the TGI [29] was > 100 µM and the GI50 [30] was 34.9 µM. The TGI [30] was > 70.5 µM, the GI50 [31] was 43.9 µM and the TGI [31] was > 71.2 µM. For the same compound, the GI50 [32] was 18.1 µM, the TGI [32] was 39.4 µM and the GI50 [33] was 25.2 µM. The TGI [33] was 81.8 µM, the GI50 [34] was 21.9 µM and the TGI [34] was 61.3 µM. For the same compound, the GI50 [35] was 21.2 µM, the TGI [35] was 51.6 µM and the GI50 [36] was 29.8 µM. The TGI [36] was > 64.4 µM, the GI50 [37] was 20.6 µM and the TGI [37] was 71.1 µM. The GI50 [38] was 21.2 µM, the TGI [38] was 61.5 µM and the GI50 [39] was 20.7 µM. The TGI [39] was 51.3 µM, the GI50 [40] was 27.7 µM and the TGI [40] was > 70.2 µM. For the same compound, the GI50 [41] was 26.9 µM, the TGI [41] was > 68.3 µM and the GI50 [42] was 19.8 µM. For the same compound, the TGI [42] was 46.5 µM, the GI50 [57] was 17.3 µM and the TGI [57] was 35.1 µM. For the same compound, the GI50 [43] was 31.8 µM, the TGI [43] was > 71 µM and the GI50 [45] was 49.8 µM. The TGI [45] was > 85.4 µM, the GI50 [58] was 26.6 µM and the TGI [58] was > 58.5 µM. For the same compound, the GI50 [46] was 16.4 µM, the TGI [46] was 38.4 µM and the GI50 [47] was 35.9 µM. For the same compound, the TGI [47] was > 100 µM, the GI50 [48] was 21.9 µM and the TGI [48] was > 62 µM. For the same compound, the GI50 [49] was 36.4 µM, the TGI [49] was > 58 µM and the GI50 [50] was 38.1 µM. For the same compound, the TGI [50] was > 100 µM, the GI50 [51] was 25 µM and the TGI [51] was > 100 µM. For the same compound, the GI50 [52] was 29.7 µM, the TGI [52] was 76.8 µM and the GI50 [53] was 33.6 µM. The TGI [53] was > 95.4 µM, the GI50 [54] was 23.8 µM and the TGI [54] was > 60.3 µM. For the same compound, the GI50 [55] was 20.4 µM, the TGI [55] was 77.9 µM and the GI50 [56] was 32.1 µM. The TGI [56] was > 63.8 µM.
